Data: patent EP4273147A1, “SUBSTITUTED SPIROLACTAMS, SALTS THEREOF AND THEIR USE AS HERBICIDALLY ACTIVE SUBSTANCES” (Bayer Aktiengesellschaft, priority 2022, dated 2023)

Legend:
[1] = tested on: AMARE; test: Herbicidal post-emergence action (Table B11); assay type: in vivo, Amaranthus retroflexus; details: application rate 1280 g/ha
Protocol: (§1) Seeds of mono- and dicotyledonous weed plants were placed in plastic pots in sandy loam soil (doubly sown with in each case one species of mono- or dicotyledonous weed plants per pot), covered with soil and cultivated in a greenhouse under controlled growth conditions. 2 to 3 weeks after sowing, the test plants were treated at the one-leaf stage. […] After the test plants had been kept in the greenhouse under optimum growth conditions for about 3 weeks, the activity of the preparations was rated visually in comparison to untreated controls. For example, 100% activity = the plants have died, 0% activity = like control plants.

[2] = tested on: STEME; test: Herbicidal pre-emergence action (Table A6); assay type: in vivo, Stellaria media; details: visual grading after ca. 3 weeks
Method in brief: (§2)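 Seeds of monocot and dicot weeds were sown in pots of sandy loam and covered with soil. Each pot held a double sowing: one monocotyledonous plus one dicotyledonous species.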

[3] = tested on: POAAN; test: Herbicidal pre-emergence action (Table A7); assay type: in vivo, Poa annua; details: visual grading after ca. 3 weeks
Method in brief: as §2

[4] = tested on: POAAN; test: Herbicidal post-emergence action (Table B7); assay type: in vivo, Poa annua
Method in brief: (§3)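 Visual rating of activity versus untreated plants about 3 weeks after treatment: 0% means no difference from controls, 100% means complete kill. Test weeds were raised from seed in sandy loam under controlled greenhouse conditions and sprayed at the one-leaf stage.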

[5] = tested on: SETVI; test: Herbicidal pre-emergence action (Table A5); assay type: in vivo, Setaria viridis; details: visual grading after ca. 3 weeks
Method in brief: as §2

[6] = tested on: ORYZA; test: Post-emergence effects on crop plants (Table F3); assay type: in vivo, Oryza sativa; details: application rate 320 g/ha, crop plant ORYZA
Description: (§4) 2 to 3 weeks after sowing, the test plants were sprayed in the single-leaf stage.

[7] = tested on: GLXMA; test: Post-emergence effects on crop plants (Table F4); assay type: in vivo, Glycine max; details: application rate 320 g/ha, crop plant GLXMA
Description: as §4

[8] = tested on: LOLRI; test: Herbicidal pre-emergence action, section C (Table C7); assay type: in vivo, Lolium rigidum; details: application rate 320 g/ha; visual grading after ca. 3 weeks
[9] = tested on: GLXMA; test: Pre-emergence effects on crop plants (Table D4); assay type: in vivo, Glycine max; details: crop plant; application rate 320 g/ha; visual grading after ca. 3 weeks
[10] = tested on: VERPE; test: Herbicidal pre-emergence action, section C (Table C11); assay type: in vivo, Veronica persica; details: application rate 80 g/ha; visual grading after ca. 3 weeks
[11] = tested on: BRSNW; test: Post-emergence effects on crop plants (Table F5); assay type: in vivo, Brassica napus; details: application rate 320 g/ha, crop plant BRSNW
Description: as §4

[12] = tested on: DIGSA; test: Herbicidal pre-emergence action, section C (Table C5); assay type: in vivo, Digitaria sanguinalis; details: visual grading after ca. 3 weeks
Description: Seeds of mono- and dicotyledonous weed plants and crop plants were sown, in plastic or organic planting pots, in sandy loam and covered with soil. The compounds according to the invention, formulated in the form of wettable powders (WP) or as emulsifiable concentrates (EC), were applied to the surface of the covering soil as aqueous suspension or emulsion, with the addition of 0.5% of an additive, at an application rate of 600 1 of water/ha (converted). Following treatment, the pots were placed in a greenhouse and kept under optimum growth conditions for the test plants.

[13] = tested on: SETVI; test: Herbicidal pre-emergence action, section C (Table C10); assay type: in vivo, Setaria viridis; details: application rate 320 g/ha; visual grading after ca. 3 weeks
[14] = tested on: ECHCG; test: Herbicidal pre-emergence action (Table A2); assay type: in vivo, Echinochloa crus-galli; details: visual grading after ca. 3 weeks
Method in brief: as §2

[15] = tested on: TRZAS; test: Post-emergence effects on crop plants (Table F2); assay type: in vivo, Triticum aestivum; details: application rate 320 g/ha, crop plant TRZAS
Description: as §4

[16] = tested on: TRZAS; test: Pre-emergence effects on crop plants (Table D2); assay type: in vivo, Triticum aestivum; details: crop plant, visual grading after ca. 3 weeks
[17] = tested on: LOLRI; test: Herbicidal pre-emergence action (Table A3); assay type: in vivo, Lolium rigidum; details: visual grading after ca. 3 weeks
Method in brief: as §2

[18] = tested on: ECHCG; test: Herbicidal post-emergence action, section E (Table E5); assay type: in vivo, Echinochloa crus-galli; details: application rate 320 g/ha; assessed visually after ca. 3 weeks
Description: as §4

[19] = tested on: ALOMY; test: Herbicidal pre-emergence action, section C (Table C2); assay type: in vivo, Alopecurus myosuroides; details: application rate 320 g/ha; visual grading after ca. 3 weeks
[20] = tested on: BRSNW; test: Pre-emergence effects on crop plants (Table D5); assay type: in vivo, Brassica napus; details: crop plant; application rate 320 g/ha; visual grading after ca. 3 weeks
Description: (§6) Seeds of mono- and dicotyledonous weed plants and crop plants were sown, in plastic or organic planting pots, in sandy loam and covered with soil. The compounds according to the invention, formulated in the form of wettable powders (WP) or as emulsifiable concentrates (EC), were applied to the surface of the covering soil as aqueous suspension or emulsion, with the addition of 0.5% of an additive, at an application rate of 600 1 of water/ha (converted).
(§7) Following treatment, the pots were placed in a greenhouse and kept under optimum growth conditions for the test plants.

[21] = tested on: VIOTR; test: Herbicidal pre-emergence action, section C (Table C12); assay type: in vivo, Viola tricolor; details: application rate 320 g/ha; visual grading after ca. 3 weeks
[22] = tested on: ZEAMX; test: Pre-emergence effects on crop plants (Table D1); assay type: in vivo, Zea mays; details: crop plant; application rate 80 g/ha; visual grading after ca. 3 weeks
Description: as §6, §7

[23] = tested on: ZEAMX; test: Post-emergence effects on crop plants (Table F1); assay type: in vivo, Zea mays; details: application rate 320 g/ha, crop plant ZEAMX
Description: as §4

[24] = tested on: ECHCG; test: Herbicidal pre-emergence action, section C (Table C6); assay type: in vivo, Echinochloa crus-galli; details: application rate 320 g/ha; visual grading after ca. 3 weeks
[25] = tested on: ORYZA; test: Pre-emergence effects on crop plants (Table D3); details: crop plant, visual grading after ca. 3 weeks
[26] = tested on: MATIN; test: Herbicidal post-emergence action (Table B6); assay type: in vivo, Matricaria inodora; details: rated visually after about 3 weeks
Protocol: as §1

[27] = tested on: ECHCG; test: Herbicidal post-emergence action (Table B3); assay type: in vivo, Echinochloa crus-galli; details: application rate 1280 g/ha; rated visually after about 3 weeks
Method in brief: as §3

[28] = tested on: DIGSA; test: Herbicidal pre-emergence action (Table A12); assay type: in vivo, Digitaria sanguinalis; details: visual grading after ca. 3 weeks
Method in brief: as §2

[29] = tested on: MATIN; test: Herbicidal pre-emergence action (Table A4); assay type: in vivo, Matricaria inodora; details: application rate 1280 g/ha; visual grading after ca. 3 weeks
Method in brief: as §2

[30] = tested on: ABUTH; test: Herbicidal pre-emergence action (Table A1); assay type: in vivo, Abutilon theophrasti; details: application rate 1280 g/ha; visual grading after ca. 3 weeks vs untreated controls (100% = plants have died off, 0% = as control plants)
Description: (§5) Seeds of mono- and dicotyledonous weed plants were sown in plastic pots (double sowings with one species of mono- and one species of dicotyledonous weed plants per pot), in sandy loam, and covered with soil.

[31] = tested on: KCHSC; test: Herbicidal pre-emergence action (Table A10); assay type: in vivo, Kochia scoparia; details: application rate 1280 g/ha; visual grading after ca. 3 weeks
Description: as §5

In the case of `COc1c(F)ccc(CN2CCCC3(CCCN(Cc4ccc(F)c(OC)c4F)C3=O)C2=O)c1F` (racemic) [I-019], the “post-emergence activity against AMARE” value [1] is reported as 100%, the “pre-emergence activity against STEME” value ([2]; application rate 320 g/ha) is reported as 100% and the “pre-emergence activity against POAAN” value ([3]; application rate 320 g/ha) is reported as 100%. The “post-emergence activity against POAAN” value ([4]; application rate 1280 g/ha) was 100% and the “pre-emergence activity against SETVI” value ([5]; application rate 1280 g/ha) was 100%.

`O=C1N(Cc2ccc(F)cc2F)CCCC12CCCN(Cc1ccc(F)cc1F)C2=O` (racemic) [I-021] was tested, and the “post-emergence activity against ORYZA” value [6] was 0%, the “post-emergence activity against GLXMA” value [7] was 10% and the “pre-emergence activity against LOLRI” value [8] was 100%. The “pre-emergence activity against STEME” value ([2]; application rate 320 g/ha) was 90%, the “pre-emergence activity against GLXMA” value [9] was 10% and the “pre-emergence activity against VERPE” value [10] was 100%. For the same compound, the “post-emergence activity against BRSNW” value [11] was 0%, the “pre-emergence activity against DIGSA” value ([12]; application rate 80 g/ha) was 90% and the “pre-emergence activity against SETVI” value [13] was 100%. For the same compound, the “pre-emergence activity against ECHCG” value ([14]; application rate 1280 g/ha) was 100%, the “pre-emergence activity against POAAN” value ([3]; application rate 320 g/ha) was 90% and the “post-emergence activity against TRZAS” value [15] was 0%. The “pre-emergence activity against TRZAS” value ([16]; application rate 80 g/ha) was 0%, the “pre-emergence activity against LOLRI” value ([17]; application rate 320 g/ha) was 100% and the “post-emergence activity against ECHCG” value [18] was 80%. The “pre-emergence activity against ALOMY” value [19] was 100%, the “pre-emergence activity against BRSNW” value [20] was 20% and the “pre-emergence activity against VIOTR” value [21] was 80%. The “pre-emergence activity against ZEAMX” value [22] was 0%, the “post-emergence activity against ZEAMX” value [23] was 10% and the “pre-emergence activity against ECHCG” value [24] was 100%. For the same compound, the “pre-emergence activity against SETVI” value ([5]; application rate 320 g/ha) was 100% and the “pre-emergence activity against ORYZA” value ([25]; application rate 80 g/ha) was 10%.

In the case of `Cc1ccc(F)c(CN2CCCC3(CCCN(Cc4c(F)ccc(C)c4F)C3=O)C2=O)c1F` (racemic) [I-029], the “pre-emergence activity against STEME” value ([2]; application rate 1280 g/ha) is reported as 90%, the “post-emergence activity against MATIN” value ([26]; application rate 1280 g/ha) is reported as 100% and the “pre-emergence activity against ECHCG” value ([14]; application rate 1280 g/ha) is reported as 100%. For the same compound, the “pre-emergence activity against POAAN” value ([3]; application rate 320 g/ha) was 90%, the “pre-emergence activity against LOLRI” value ([17]; application rate 1280 g/ha) was 100% and the “post-emergence activity against POAAN” value ([4]; application rate 1280 g/ha) was 90%. For the same compound, the “pre-emergence activity against SETVI” value ([5]; application rate 1280 g/ha) was 100% and the “post-emergence activity against ECHCG” value [27] was 100%.

With `O=C1N(Cc2ccccc2Cl)CCCC12CCCN(Cc1ccccc1Cl)C2=O` (racemic) [I-030] the “post-emergence activity against MATIN” value ([26]; application rate 320 g/ha) was 90%, the “pre-emergence activity against ECHCG” value ([14]; application rate 320 g/ha) was 90% and the “pre-emergence activity against POAAN” value ([3]; application rate 1280 g/ha) was 90%. The “post-emergence activity against POAAN” value ([4]; application rate 320 g/ha) was 90% and the “pre-emergence activity against SETVI” value ([5]; application rate 1280 g/ha) was 100%.

With `Cc1cccc(CN2CCCC3(CCCN(Cc4cccc(C)c4F)C3=O)C2=O)c1F` (racemic) [I-053] the “post-emergence activity against ORYZA” value [6] was 0%, the “post-emergence activity against GLXMA” value [7] was 0% and the “post-emergence activity against BRSNW” value [11] was 20%. The “pre-emergence activity against DIGSA” value ([12]; application rate 320 g/ha) was 100%, the “post-emergence activity against MATIN” value ([26]; application rate 320 g/ha) was 90% and the “pre-emergence activity against SETVI” value [13] was 100%. The “pre-emergence activity against ECHCG” value ([14]; application rate 1280 g/ha) was 100%, the “pre-emergence activity against POAAN” value ([3]; application rate 320 g/ha) was 100% and the “pre-emergence activity against DIGSA” value ([28]; application rate 320 g/ha) was 100%. The “post-emergence activity against TRZAS” value [15] was 10%, the “pre-emergence activity against TRZAS” value ([16]; application rate 320 g/ha) was 0% and the “pre-emergence activity against LOLRI” value ([17]; application rate 1280 g/ha) was 90%. For the same compound, the “pre-emergence activity against BRSNW” value [20] was 10%, the “pre-emergence activity against VIOTR” value [21] was 90% and the “post-emergence activity against POAAN” value ([4]; application rate 1280 g/ha) was 90%. The “pre-emergence activity against ZEAMX” value [22] was 0%, the “post-emergence activity against ZEAMX” value [23] was 0% and the “pre-emergence activity against SETVI” value ([5]; application rate 1280 g/ha) was 100%. The “pre-emergence activity against ORYZA” value ([25]; application rate 320 g/ha) was 0%.

In the case of `O=C1N(Cc2ccccc2Cl)CCCC12CCN(Cc1c(F)cccc1F)C2=O` (racemic) [I-076], the “pre-emergence activity against STEME” value ([2]; application rate 320 g/ha) is reported as 90%, the “pre-emergence activity against MATIN” value [29] is reported as 90% and the “pre-emergence activity against ECHCG” value ([14]; application rate 1280 g/ha) is reported as 100%. For the same compound, the “pre-emergence activity against POAAN” value ([3]; application rate 320 g/ha) was 100%, the “pre-emergence activity against DIGSA” value ([28]; application rate 320 g/ha) was 90% and the “pre-emergence activity against LOLRI” value ([17]; application rate 320 g/ha) was 100%. For the same compound, the “pre-emergence activity against ABUTH” value [30] was 90%, the “pre-emergence activity against SETVI” value ([5]; application rate 1280 g/ha) was 100% and the “post-emergence activity against ECHCG” value [27] was 90%.

In the case of `O=C1N(Cc2ccccc2)CCC12CCCN(Cc1ccccc1F)C2=O` (racemic) [I-093], the “pre-emergence activity against KCHSC” value [31] is reported as 90%, the “pre-emergence activity against STEME” value ([2]; application rate 1280 g/ha) is reported as 90% and the “pre-emergence activity against MATIN” value [29] is reported as 90%. The “pre-emergence activity against ECHCG” value ([14]; application rate 1280 g/ha) was 100%, the “pre-emergence activity against POAAN” value ([3]; application rate 320 g/ha) was 100% and the “pre-emergence activity against DIGSA” value ([28]; application rate 1280 g/ha) was 100%. The “pre-emergence activity against LOLRI” value ([17]; application rate 1280 g/ha) was 100%, the “pre-emergence activity against ABUTH” value [30] was 90% and the “post-emergence activity against POAAN” value ([4]; application rate 320 g/ha) was 90%. The “pre-emergence activity against SETVI” value ([5]; application rate 320 g/ha) was 100%.
